# Test results as given in PMC9254699 (Biomaterials science, 2021).
# No end group written: not given here.
# Legend:
# TGF-β1 [1] = target: T1, TGF-β1 (Homo sapiens, UniProt P01137); conditions: cited from earlier work
# TGF-β1 [2] = target: T1, TGF-β1; conditions: cited from earlier work; remark: listed apart in the source
# TGF-β1 [3] = target: T1, TGF-β1; experiment: surface plasmon resonance; assay type: binding; conditions: for kon: read-out: association rate constant ka; for koff: read-out: dissociation rate constant kd
# RIPK2 = conditions: cited from earlier work
# p38MAPK = conditions: cited from earlier work
# ALK5 (TβRI) = conditions: cited from earlier work
# CK1δ = conditions: cited from earlier work
# activin receptor ALK4 = conditions: cited from earlier work
# activin receptor ALK7 = conditions: cited from earlier work
# [4] = test system: human umbilical vein endothelial cells (HUVECs); experiment: HUVEC proliferation assay; assay type: cell-based; conditions: HUVEC (Fig. S5)
# [5] = test system: mouse T-lymphocyte HT-2 cells; conditions: cited from earlier work
# [6] = test system: mouse T-lymphocyte HT-2 cells; experiment: HT-2 T-lymphocyte proliferation assay; assay type: cell-based
# off-target kinases = conditions: cited from earlier work
# [7] = deemed target-related; cited from earlier work
# T1 sequence (P01137 279-390 limits assumed, species assumed): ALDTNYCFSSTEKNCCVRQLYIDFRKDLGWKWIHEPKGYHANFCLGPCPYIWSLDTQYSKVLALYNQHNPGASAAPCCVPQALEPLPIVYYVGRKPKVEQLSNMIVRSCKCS
compound,measurement,setting,value
"Cc1ccc(C(=O)Nc2ccc(S(=O)(=O)O)c3cc(S(=O)(=O)O)cc(S(=O)(=O)O)c23)cc1NC(=O)c1cccc(NC(=O)Nc2cccc(C(=O)Nc3cc(C(=O)Nc4ccc(S(=O)(=O)O)c5cc(S(=O)(=O)O)cc(S(=O)(=O)O)c45)ccc3C)c2)c1 [suramin, reference compound]","activity against TGF-β1, preclinical anti-fibrotic",TGF-β1 [1],activity against TGF-β1
same,direct binding to TGF-β1 or its receptors,TGF-β1 [2],do not directly bind TGF-β1 or its receptors
CIAEIDLIPRDRPF [RIPΔ],kon,TGF-β1 [3],192000 M⁻¹ s⁻¹
same,koff,TGF-β1 [3],0.0199 s⁻¹
"CCCCc1nc(Cl)c(CO)n1Cc1ccc(-c2ccccc2-c2nn[nH]n2)cc1 [losartan, reference compound]","activity against TGF-β1, preclinical anti-fibrotic",TGF-β1 [1],activity against TGF-β1
same,direct binding to TGF-β1 or its receptors,TGF-β1 [2],do not directly bind TGF-β1 or its receptors
NC(=O)c1ccc(-c2nc(-c3ccc4c(c3)OCO4)c(-c3ccccn3)[nH]2)cc1 [SB-431542],activity against RIPK2,RIPK2,activity
same,activity against p38MAPK,p38MAPK,activity
same,inhibition of ALK5 (TβRI),ALK5 (TβRI),small molecule inhibitor of ALK5 (TβRI)
same,activity against CK1δ,CK1δ,activity
same,activity against ALK4,activin receptor ALK4,activity against activin receptors ALK4
same,activity against ALK7,activin receptor ALK7,activity against activin receptors ALK4 and ALK7
CLIDFRIPADREVPI [Scrambled RIP],kon,TGF-β1 [3],68500 M⁻¹ s⁻¹
same,koff,TGF-β1 [3],0.0352 s⁻¹
TGF-β1: most abundant TGF-β isoform in adult tissues and platelets,TGF-β1 concentration of highest inhibition of HUVEC proliferation,[4],41 pg/mL
same,TGF-β1 concentration of highest inhibition of HUVEC proliferation (molar),[4],3.2 pM
same,TGF-β1 concentration range suppressing HUVEC proliferation,[4],10 to 1000 ng/mL
same,published IC50 value of TGF-β1 in HT-2 assay,[5],0.04 to 0.2 ng/mL
same,IC50 of TGF-β1 in the HT-2 proliferation assay,"[6]; IL-4 dependent proliferation, fluorescence-based cell viability assay",0.05 ng/mL
same,IC50,"[6]; read-out: IC50 of TGF-β1 in the HT-2 proliferation assay (molar), IL-4 dependent proliferation, fluorescence-based cell viability assay",3.9 pM
same,inhibition of IL-4 dependent HT-2 proliferation by TGF-β1,"[6]; soluble TGF-β1, fluorescence-based cell viability assay (Fig. 2a)",inhibited IL-4 dependent proliferation in a dose dependent manner
Cc1cccc(-c2nn3c(c2-c2ccnc4ccc(C(N)=O)cc24)CCC3)n1 [Galunisertib],inhibition of TβRI by galunisertib,ALK5 (TβRI),small molecule inhibitor of TβRI
same,activity against off-target kinases,off-target kinases,strong activity against off-target kinases
same,cardiac toxicity in preclinical development,[7],cardiac toxicities identified during preclinical development
CIAEIDLIPRDRPFV [RIP],kon,TGF-β1 [3],140000 M⁻¹ s⁻¹
same,koff,TGF-β1 [3],0.00836 s⁻¹
CPQLGKFGDVRF [RIIP-1],effect on HT-2 proliferation (fluorescence) vs own scrambled control,"[6]; 10 μM soluble peptide, 0.1 ng/mL TGF-β1 (Fig. 2b)",not statistically different between RIIP-1 and its scrambled control
relaxin,"activity against TGF-β1, preclinical anti-fibrotic",TGF-β1 [1],activity against TGF-β1
same,direct binding to TGF-β1 or its receptors,TGF-β1 [2],do not directly bind TGF-β1 or its receptors
